Experimental data reported in patent publication US8044069B2, “Compounds as calcium channel blockers” (Abbott Laboratories, priority 2008, dated 2011).

Molecular target: human Cav2.2 (Homo sapiens, UniProt Q00975)
Assay: Assessment of calcium channel activity using FLIPR (Ca2+ influx in IMR32 cells)
Type: cell-based
Conditions: IMR32 cells endogenously expressing human Cav2.2; 60 minute pre-incubation; 2 μM nifedipine; depolarized with 80 mM KCl, 5 mM CaCl2
Outline: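 FLIPR measured Ca2+ influx triggered by 80 mM KCl depolarization together with a step to 5 mM external CaCl2. Percent inhibition relative to uninhibited activity was fitted sigmoidally for IC50.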

Sequence of human Cav2.2 (Q00975 whole entry): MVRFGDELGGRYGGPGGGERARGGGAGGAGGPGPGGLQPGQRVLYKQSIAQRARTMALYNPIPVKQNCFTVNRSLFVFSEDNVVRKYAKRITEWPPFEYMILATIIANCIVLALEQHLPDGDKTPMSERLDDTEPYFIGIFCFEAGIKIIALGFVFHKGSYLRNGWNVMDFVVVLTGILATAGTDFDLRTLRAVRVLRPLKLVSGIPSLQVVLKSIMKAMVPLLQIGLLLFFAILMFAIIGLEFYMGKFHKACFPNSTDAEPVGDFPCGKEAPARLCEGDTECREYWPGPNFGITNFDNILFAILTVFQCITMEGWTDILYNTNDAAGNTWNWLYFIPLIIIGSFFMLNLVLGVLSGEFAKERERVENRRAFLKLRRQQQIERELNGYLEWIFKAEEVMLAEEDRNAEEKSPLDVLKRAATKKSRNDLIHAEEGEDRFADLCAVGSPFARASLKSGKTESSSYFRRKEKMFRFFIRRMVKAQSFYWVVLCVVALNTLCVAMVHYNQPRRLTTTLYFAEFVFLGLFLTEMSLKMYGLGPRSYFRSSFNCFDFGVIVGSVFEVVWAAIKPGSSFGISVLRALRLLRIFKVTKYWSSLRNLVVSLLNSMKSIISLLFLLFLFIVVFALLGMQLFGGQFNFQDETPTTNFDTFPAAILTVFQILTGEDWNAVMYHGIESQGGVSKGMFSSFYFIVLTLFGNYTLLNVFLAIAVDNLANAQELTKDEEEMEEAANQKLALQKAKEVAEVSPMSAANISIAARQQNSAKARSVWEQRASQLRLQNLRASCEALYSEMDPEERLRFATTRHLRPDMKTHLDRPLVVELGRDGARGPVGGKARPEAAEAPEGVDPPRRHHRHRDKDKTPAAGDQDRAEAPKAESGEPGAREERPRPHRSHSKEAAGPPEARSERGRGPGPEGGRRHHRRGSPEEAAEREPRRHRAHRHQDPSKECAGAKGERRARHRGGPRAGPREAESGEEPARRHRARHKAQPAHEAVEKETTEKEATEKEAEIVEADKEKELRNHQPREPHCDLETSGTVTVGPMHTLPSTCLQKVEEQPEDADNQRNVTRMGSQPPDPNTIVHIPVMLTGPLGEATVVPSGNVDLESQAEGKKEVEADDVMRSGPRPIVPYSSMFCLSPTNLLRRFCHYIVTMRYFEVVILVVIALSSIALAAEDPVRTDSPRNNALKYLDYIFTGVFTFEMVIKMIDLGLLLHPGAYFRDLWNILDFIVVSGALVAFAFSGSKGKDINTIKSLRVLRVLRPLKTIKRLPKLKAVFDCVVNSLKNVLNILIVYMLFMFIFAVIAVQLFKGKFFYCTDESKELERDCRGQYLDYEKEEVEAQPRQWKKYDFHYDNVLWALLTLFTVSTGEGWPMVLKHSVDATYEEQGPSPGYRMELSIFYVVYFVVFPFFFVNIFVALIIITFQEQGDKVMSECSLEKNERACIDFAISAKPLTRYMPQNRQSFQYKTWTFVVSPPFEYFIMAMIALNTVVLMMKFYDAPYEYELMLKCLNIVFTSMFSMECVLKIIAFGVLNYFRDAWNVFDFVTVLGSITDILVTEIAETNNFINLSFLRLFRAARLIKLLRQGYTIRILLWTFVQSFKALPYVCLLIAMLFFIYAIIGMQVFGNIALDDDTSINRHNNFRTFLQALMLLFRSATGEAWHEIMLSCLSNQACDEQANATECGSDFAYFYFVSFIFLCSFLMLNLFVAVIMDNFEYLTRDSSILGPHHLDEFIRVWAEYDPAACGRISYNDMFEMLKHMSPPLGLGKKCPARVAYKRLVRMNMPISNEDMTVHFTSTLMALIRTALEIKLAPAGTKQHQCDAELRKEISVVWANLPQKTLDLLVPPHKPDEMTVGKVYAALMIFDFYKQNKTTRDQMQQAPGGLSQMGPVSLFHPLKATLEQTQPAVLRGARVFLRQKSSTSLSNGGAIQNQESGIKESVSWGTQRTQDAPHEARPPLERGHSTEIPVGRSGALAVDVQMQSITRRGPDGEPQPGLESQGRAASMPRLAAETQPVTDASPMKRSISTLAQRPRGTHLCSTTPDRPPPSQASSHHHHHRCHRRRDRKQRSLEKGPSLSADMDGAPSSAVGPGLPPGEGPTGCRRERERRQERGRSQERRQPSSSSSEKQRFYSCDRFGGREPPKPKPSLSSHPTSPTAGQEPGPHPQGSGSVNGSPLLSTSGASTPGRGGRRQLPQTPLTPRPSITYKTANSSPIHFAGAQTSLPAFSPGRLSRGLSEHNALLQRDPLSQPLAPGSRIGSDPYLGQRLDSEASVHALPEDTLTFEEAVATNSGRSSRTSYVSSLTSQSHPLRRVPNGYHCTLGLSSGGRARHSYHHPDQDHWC
Sequence of human Cav2.2 (P54289 25-951 partner limits assumed): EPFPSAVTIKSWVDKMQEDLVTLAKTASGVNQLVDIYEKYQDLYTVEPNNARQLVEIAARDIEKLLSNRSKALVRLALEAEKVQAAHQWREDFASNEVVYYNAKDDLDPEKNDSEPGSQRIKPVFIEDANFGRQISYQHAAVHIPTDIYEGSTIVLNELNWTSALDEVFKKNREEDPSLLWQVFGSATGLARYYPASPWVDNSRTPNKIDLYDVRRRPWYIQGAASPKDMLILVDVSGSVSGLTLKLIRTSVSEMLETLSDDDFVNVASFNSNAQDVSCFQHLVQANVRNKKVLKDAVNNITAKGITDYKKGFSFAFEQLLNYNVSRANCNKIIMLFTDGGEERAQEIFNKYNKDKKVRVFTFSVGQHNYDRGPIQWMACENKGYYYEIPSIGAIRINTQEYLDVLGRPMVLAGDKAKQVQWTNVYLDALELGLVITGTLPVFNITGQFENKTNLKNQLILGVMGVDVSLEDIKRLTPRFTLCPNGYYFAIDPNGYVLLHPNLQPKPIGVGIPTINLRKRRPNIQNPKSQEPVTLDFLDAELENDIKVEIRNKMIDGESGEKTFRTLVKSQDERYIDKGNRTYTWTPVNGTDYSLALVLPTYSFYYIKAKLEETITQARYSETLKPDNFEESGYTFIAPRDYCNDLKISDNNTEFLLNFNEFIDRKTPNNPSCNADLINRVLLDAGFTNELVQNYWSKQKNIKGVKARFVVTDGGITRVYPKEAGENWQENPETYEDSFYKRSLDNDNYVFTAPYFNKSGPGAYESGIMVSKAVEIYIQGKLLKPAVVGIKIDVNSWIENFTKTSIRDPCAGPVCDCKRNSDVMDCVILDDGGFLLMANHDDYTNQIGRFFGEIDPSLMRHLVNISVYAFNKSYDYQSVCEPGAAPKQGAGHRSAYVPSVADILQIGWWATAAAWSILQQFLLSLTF
Sequence of human Cav2.2 (P54289 952-1103 partner limits assumed): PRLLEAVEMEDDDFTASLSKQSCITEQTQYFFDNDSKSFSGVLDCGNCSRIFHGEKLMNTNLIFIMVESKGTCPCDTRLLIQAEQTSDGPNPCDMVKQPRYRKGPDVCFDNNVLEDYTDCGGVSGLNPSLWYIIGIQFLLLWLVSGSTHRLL
Sequence of human Cav2.2 (P54284 whole entry partner): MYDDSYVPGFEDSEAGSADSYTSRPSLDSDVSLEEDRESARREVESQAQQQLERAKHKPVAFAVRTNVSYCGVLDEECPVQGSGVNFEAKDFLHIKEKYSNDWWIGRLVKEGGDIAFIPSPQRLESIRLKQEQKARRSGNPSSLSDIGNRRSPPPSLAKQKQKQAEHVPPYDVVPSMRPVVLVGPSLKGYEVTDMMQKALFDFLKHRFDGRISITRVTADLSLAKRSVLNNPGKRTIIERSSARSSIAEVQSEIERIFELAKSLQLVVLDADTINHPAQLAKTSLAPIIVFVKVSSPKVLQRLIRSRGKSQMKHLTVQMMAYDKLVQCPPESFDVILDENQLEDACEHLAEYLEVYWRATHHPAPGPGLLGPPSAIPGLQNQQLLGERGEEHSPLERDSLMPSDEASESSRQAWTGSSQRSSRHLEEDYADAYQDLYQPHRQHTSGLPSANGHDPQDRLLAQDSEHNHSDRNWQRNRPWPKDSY

Compound	IC50 [µM]
O=C1N(CCN2CCN(c3cccc(C(F)(F)F)c3)CC2)CCCC1(c1ccccc1)c1ccccc1 [Example 141, 3,3-diphenyl-1-(2-{4-[3-(trifluoromethyl)phenyl]piperazin-1-yl}ethyl)piperidin-2-one]	1.56
O=C(CN1CCC(c2ccccc2)(c2ccccc2)C1=O)Nc1ccc(Cl)cn1 [Example 5, N-(5-chloropyridin-2-yl)-2-(2-oxo-3,3-diphenylpyrrolidin-1-yl)acetamide]	4.51
O=C(CN1CCC(c2ccccc2)(c2ccccc2)C1=O)Nc1cccc(C(F)(F)F)n1 [Example 247, 2-(2-oxo-3,3-diphenylpyrrolidin-1-yl)-N-[6-(trifluoromethyl)pyridin-2-yl]acetamide]	4.48
O=C(CN1CCC(c2ccc(F)cc2)C1=O)N1Cc2ccc(C(F)(F)F)cc2C1 (stereo not shown) [Example 216, 3-(4-fluorophenyl)-1-{2-oxo-2-[5-(trifluoromethyl)-1,3-dihydro-2H-isoindol-2-yl]ethyl}pyrrolidin-2-one]	9.43
COc1cc(CN2CCN(CCN3CCC(c4ccc(F)cc4)(c4ccc(F)cc4)C3=O)CC2)cc(OC)c1 [Example 63, 1-{2-[4-(3,5-dimethoxybenzyl)piperazin-1-yl]ethyl}-3,3-bis(4-fluorophenyl)pyrrolidin-2-one]	1.65
O=C(CN1CCCC(c2ccccc2)C1=O)Nc1ccc(Cl)cn1 (stereo not shown) [Example 192, N-(5-chloropyridin-2-yl)-2-(2-oxo-3-phenylpiperidin-1-yl)acetamide]	12
CC1(C)C(=O)N(CCN2CCC(c3ccccc3)(c3ccccc3)C2=O)CCN1Cc1cccs1 [Example 65, 3,3-dimethyl-1-[2-(2-oxo-3,3-diphenylpyrrolidin-1-yl)ethyl]-4-(thien-2-ylmethyl)piperazin-2-one]	1.04
O=C(CN1CCC(c2ccc(F)cc2)(c2ccc(F)cc2)C1=O)NC1CCN(Cc2cccc(C(F)(F)F)c2)CC1 [Example 208, 2-[3,3-bis(4-fluorophenyl)-2-oxopyrrolidin-1-yl]-N-{1-[3-(trifluoromethyl)benzyl]piperidin-4-yl}acetamide]	2.4
O=C(CN1CCNC(c2ccccc2)C1=O)N1CCN(C(c2ccccc2)c2ccccc2)CC1 (stereo not shown) [Example 102, 1-[2-(4-benzhydrylpiperazin-1-yl)-2-oxoethyl]-3-phenylpiperazin-2-one]	8.39
O=C(CN1CCC(c2ccc(F)cc2)(c2ccc(F)cc2)C1=O)N1CCC(c2ccc(F)cc2)(c2ccc(F)cc2)C1 [Example 204, 1-{2-[3,3-bis(4-fluorophenyl)pyrrolidin-1-yl]-2-oxoethyl}-3,3-bis(4-fluorophenyl)pyrrolidin-2-one]	3.04
O=C1N(S(=O)(=O)c2cccc(C(F)(F)F)c2)CCCC1(c1ccccc1)c1ccccc1 [Example 146, 3,3-diphenyl-1-{[3-(trifluoromethyl)phenyl]sulfonyl}piperidin-2-one]	6.78
N#Cc1ccc(C2CN(C(=O)CN3CCCC(c4ccccc4)(c4ccccc4)C3=O)C2)cc1 [Example 241, 4-{1-[(2-oxo-3,3-diphenylpiperidin-1-yl)acetyl]azetidin-3-yl}benzonitrile]	8.96
O=C(CN1CCC(c2ccc(F)cc2)(c2ccc(F)cc2)C1=O)N1CCC(c2ccccc2)(c2ccccc2)C1 [Example 61, 1-[2-(3,3-diphenylpyrrolidin-1-yl)-2-oxoethyl]-3,3-bis(4-fluorophenyl)pyrrolidin-2-one]	1.31
O=C(CN1CCCC(c2ccccc2)(c2ccccc2)C1=O)NC1CCOc2ccc(F)cc21 (stereo not shown) [Example 75, N-(6-fluoro-3,4-dihydro-2H-chromen-4-yl)-2-(2-oxo-3,3-diphenylpiperidin-1-yl)acetamide]	4.61
O=C1N(Cc2nc(-c3ccc(C(F)(F)F)nc3)no2)CCC1(c1ccccc1)c1ccccc1 [Example 211, 3,3-diphenyl-1-({3-[6-(trifluoromethyl)pyridin-3-yl]-1,2,4-oxadiazol-5-yl}methyl)pyrrolidin-2-one]	3.15
CN(CCN1CCC(c2ccc(F)cc2)(c2ccc(F)cc2)C1=O)CC(O)COc1cccc2ncccc12 (stereo not shown) [Example 108, 3,3-bis(4-fluorophenyl)-1-{2-[[2-hydroxy-3-(quinolin-5-yloxy)propyl](methyl)amino]ethyl}pyrrolidin-2-one]	1
O=C(CN1CCC(c2ccc(F)cc2)(c2ccc(F)cc2)C1=O)N1CCc2ccccc2C1 [Example 258, 1-[2-(3,4-dihydroisoquinolin-2(1H)-yl)-2-oxoethyl]-3,3-bis(4-fluorophenyl)pyrrolidin-2-one]	4.45
O=C(CN1CCCC(c2ccccc2)(c2ccccc2)C1=O)N1CCCC(c2ccccc2)(c2ccccc2)C1 [Example 71, 1-[2-(3,3-diphenylpiperidin-1-yl)-2-oxoethyl]-3,3-diphenylpiperidin-2-one]	3.41
O=C(CN1CCCC(c2ccccc2)(c2ccccc2)C1=O)N1CCc2ccccc2C1 [Example 260, 1-[2-(3,4-dihydroisoquinolin-2(1H)-yl)-2-oxoethyl]-3,3-diphenylpiperidin-2-one]	7.12

The next lines start with the values.

IC50 [µM]	Compound
1.84	C[C@@H]1CN(C(=O)c2cccc(S(=O)(=O)N3CCC(c4ccccc4)(c4ccccc4)C3=O)c2)C[C@H](C)O1 [Example 147, 1-[(3-{[cis-2,6-dimethylmorpholin-4-yl]carbonyl}phenyl)sulfonyl]-3,3-diphenylpyrrolidin-2-one]
1.9	COc1ccc(C2(c3ccc(OC)cc3)CCCN(CCN(C)CCc3cccc(OC)c3)C2=O)cc1 [Example 124, 3,3-bis(4-methoxyphenyl)-1-{2-[[2-(3-methoxyphenyl)ethyl](methyl)amino]ethyl}piperidin-2-one]
2.81	O=C1[C@@H](c2ccc(F)cc2)CCN1Cc1nc(-c2ccc(C(F)(F)F)cc2)no1 (single isomer, unassigned) [Example 237]
3.03	O=C(CN1CCC(c2ccccc2)(c2ccccc2)C1=O)NC1CCCc2ccccc21 (stereo not shown) [Example 27, 2-(2-oxo-3,3-diphenylpyrrolidin-1-yl)-N-1,2,3,4-tetrahydronaphthalen-1-ylacetamide]
8.99	O=C1N(Cc2nc(-c3cnccn3)no2)CCC1(c1ccccc1)c1ccccc1 [Example 230, 3,3-diphenyl-1-[(3-pyrazin-2-yl-1,2,4-oxadiazol-5-yl)methyl]pyrrolidin-2-one]
1.77	O=C(CN1CCCC(c2ccc(F)cc2)(c2ccc(F)cc2)C1=O)N1CCC(c2ccccc2)(c2ccccc2)C1 [Example 172, 1-[2-(3,3-diphenylpyrrolidin-1-yl)-2-oxoethyl]-3,3-bis(4-fluorophenyl)piperidin-2-one]
3.73	O=C(CN1CCCC(c2ccccc2)(c2ccccc2)C1=O)N1CCC(Oc2cccc(Cl)c2)CC1 [Example 159, 1-{2-[4-(3-chlorophenoxy)piperidin-1-yl]-2-oxoethyl}-3,3-diphenylpiperidin-2-one]
2.04	O=C(CCCN1CCC(c2ccccc2)(c2ccccc2)C1=O)N1Cc2ccc(C(F)(F)F)cc2C1 [Example 223, 1-{4-oxo-4-[5-(trifluoromethyl)-1,3-dihydro-2H-isoindol-2-yl]butyl}-3,3-diphenylpyrrolidin-2-one]
2.93	O=C1N(Cc2nc(-c3cncc(C(F)(F)F)c3)no2)CCC1(c1ccccc1)c1ccccc1 [Example 219, 3,3-diphenyl-1-({3-[5-(trifluoromethyl)pyridin-3-yl]-1,2,4-oxadiazol-5-yl}methyl)pyrrolidin-2-one]
